# Source: patent US8841321B2, “Quinoline derivatives as antibacterial agents” (Janssen Pharmaceutica NV, priority 2005, dated 2014)
# Assays:
# [1] = system: SPN 6305 (Streptococcus pneumoniae (ATCC6305)); test: Microtitre plate assay, IC90 determination; type: cell-based; details: for IC90 (μg/ml) SPN 6305: Streptococcus pneumoniae (ATCC6305); for IC90: Streptococcus pneumoniae, ATCC6305, Streptococcus pneumoniae (ATCC6305), read-out: IC90 (μg/ml) SPN 6305
# In short: (§1)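 Growth-inhibition endpoint: resazurin added 3 h after inoculation, plates incubated overnight, fluorescence at 530/590 nm after 24 h at 37 °C. Inocula of roughly 10–60 CFU per well in Mueller-Hinton medium; compounds titrated five-fold. IC90 reported as μg/ml.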
# [2] = system: STA 29213 (Staphylococcus aureus (ATCC29213)); test: Microtitre plate assay, IC90 determination; type: cell-based; details: for IC90 (μg/ml) STA 29213: Staphylococcus aureus (ATCC29213); for IC90: Staphylococcus aureus, ATCC29213, Staphylococcus aureus (ATCC29213), read-out: IC90 (μg/ml) STA 29213
# In short: as §1
# [3] = system: EFA 29212 (Enterococcus faecalis (ATCC29212)); test: Microtitre plate assay, IC90 determination; type: cell-based; details: for IC90 (μg/ml) EFA 29212: Enterococcus faecalis (ATCC29212)
# [4] = system: SPY 8668 (Streptococcus pyogens (ATCC8668)); test: Microtitre plate assay, IC90 determination; type: cell-based; details: Streptococcus pyogens (ATCC8668)
# [5] = system: PAE 27853 (Pseudomonas aeruginosa (ATCC27853)); test: Microtitre plate assay, IC90 determination; type: cell-based; details: for IC90 (μg/ml) PAE 27853: Pseudomonas aeruginosa (ATCC27853)
# [6] = system: STA RMETH (methicilline resistant Staphylococcus aureus (MRSA), a clinical isolate from the University of Antwerp); test: Microtitre plate assay, IC90 determination; type: cell-based
# [7] = system: LMO 49594 (Listeria monocytogenes (ATCC49594)); test: Microtitre plate assay, IC90 determination; type: cell-based; details: for IC90 (μg/ml) LMO 49594: Listeria monocytogenes (ATCC49594)
# [8] = system: STA 25923 (Staphylococcus aureus (ATCC25923)); test: Microtitre plate assay, IC90 determination; type: cell-based; details: for IC90 (μg/ml) STA 25923: Staphylococcus aureus (ATCC25923)
# [9] = system: BSU 43639 (Bacillus subtilis (ATCC43639)); test: Microtitre plate assay, IC90 determination; type: cell-based; details: for IC90 (μg/ml) BSU 43639: Bacillus subtilis (ATCC43639)
Compound,melting point,IC90 (μg/ml) SPN 6305 [1],IC90 (μg/ml) STA 29213 [2],IC90 (μg/ml) EFA 29212 [3],IC90 (μg/ml) SPY 8668 [4],IC90 (μg/ml) PAE 27853 [5],IC90 (μg/ml) STA RMETH [6],also measured
COc1nc2ccc(Br)cc2cc1C(c1ccccc1)C(O)(CCCCN(C)C)c1ccc2c(c1)OCO2 (stereo not shown) [Compound 9],98 °C,11.5 µg/mL,9.1 µg/mL,–,–,–,–,–
CNCCCC(O)(c1ccc(F)cc1)C(c1ccccc1)c1cc2cc(Br)ccc2nc1OC (stereo not shown) [Compound 68],188 °C,1.9 µg/mL,8.3 µg/mL,18.6 µg/mL,1.7 µg/mL,8.3 µg/mL,–,–
COc1ccc2cc(C(O)(CCCCN(C)C)C(c3ccccc3)c3cc4ccc(Br)cc4nc3OC)ccc2c1 (stereo not shown) [Compound 30],160 °C,21.8 µg/mL,9.7 µg/mL,–,–,–,–,–
COc1ccc2cc(C(O)(CCCCN(C)C)C(c3ccccc3)c3cc4ccccc4nc3OC)ccc2c1 (stereo not shown) [Compound 34],179 °C,1.9 µg/mL,3.8 µg/mL,8.5 µg/mL,8.5 µg/mL,2.7 µg/mL,10.7 µg/mL,–
COc1nc2ccc(-c3cccnc3)cc2cc1C(c1ccccc1)C(O)(CCCCN(C)C)c1ccccc1 (stereo not shown) [Compound 42],203 °C,–,–,–,–,–,–,IC90 [1]: 53.2 µg/mL
CCN(CC)CCCCC(O)(CCc1cccc2ccccc12)C(c1ccccc1)c1cc2cc(Br)ccc2nc1OC (stereo not shown) [Compound 72],138 °C,1.61 µg/mL,2.02 µg/mL,–,–,–,2.55 µg/mL,–
COc1nc2ccc(Br)cc2cc1C(c1ccccc1)C(O)(CCCCN(C)C)c1ccc2ccccc2c1 (stereo not shown) [Compound 25],–,2.3 µg/mL,1.9 µg/mL,4.1 µg/mL,9.3 µg/mL,1.9 µg/mL,58.4 µg/mL,IC90 (μg/ml) LMO 49594 [7]: 9.3 µg/mL; IC90 (μg/ml) STA 25923 [8]: 58.4 µg/mL; IC90 (μg/ml) BSU 43639 [9]: 58.4 µg/mL
COc1nc2ccc(CO)cc2cc1C(c1ccccc1)C(O)(CCCCN(C)C)c1ccc2ccccc2c1 (stereo not shown) [Compound 55],174 °C,–,–,–,–,–,–,IC90 [1]: 10.7 µg/mL; IC90 [2]: 8.47 µg/mL
CCN(CC)CCCC(O)(c1ccc2ccccc2c1)C(c1ccccc1)c1cc2cc(Br)ccc2nc1OC (stereo not shown) [Compound 52],–,2.4 µg/mL,15.0 µg/mL,47.5 µg/mL,11.9 µg/mL,11.9 µg/mL,15.0 µg/mL,IC90 (μg/ml) LMO 49594 [7]: 15.0 µg/mL; IC90 (μg/ml) STA 25923 [8]: 15.0 µg/mL; IC90 (μg/ml) BSU 43639 [9]: 15.0 µg/mL
COc1nc2ccc(Br)cc2cc1C(c1ccccc1)C(O)(CCCCN(C)C)c1ccccc1 (stereo not shown) [Compound 20],–,2.1 µg/mL,–,–,4.2 µg/mL,–,–,"IC90 ([3]; Enterococcus faecalis, ATCC29212, Enterococcus faecalis (ATCC29212), read-out: IC90 (μg/ml) EFA 29212): 10.6 µg/mL; IC90 ([7]; Listeria monocytogenes, ATCC49594, Listeria monocytogenes (ATCC49594), read-out: IC90 (μg/ml) LMO 49594): 13.4 µg/mL; IC90 ([8]; Staphylococcus aureus, ATCC25923, Staphylococcus aureus (ATCC25923), read-out: IC90 (μg/ml) STA 25923): 10.6 µg/mL; IC90 ([9]; Bacillus subtilis, ATCC43639, Bacillus subtilis (ATCC43639), read-out: IC90 (μg/ml) BSU 43639): 10.6 µg/mL; IC90 [2]: 10.6 µg/mL; IC90 ([5]; Pseudomonas aeruginosa, ATCC27853, Pseudomonas aeruginosa (ATCC27853), read-out: IC90 (μg/ml) PAE 27853): 10.6 µg/mL; IC90 ([6]; Staphylococcus aureus, MRSA, read-out: IC90 (μg/ml) STA RMETH): 10.6 µg/mL"
